Our source for the Ki values is patent US10428062B2, “Geminal substituted aminobenzisoxazole compounds as agonists of α7-nicotinic acetylcholine receptors” (Forum Pharmaceuticals, Inc., priority 2015, dated 2019).

The Ki is a measure of affinity in units of concentration, obtained from inhibition or displacement.

Where a name gives a salt, the structure may show the parent alone. Read-outs that look alike come from different tables or passages of the source. Where only a bound is given, the exact number is not on record here.

For assay [1], the target named is T1, human 5-HT3 serotonin receptors (Homo sapiens, UniProt P46098).
T1 sequence (P46098 24-478): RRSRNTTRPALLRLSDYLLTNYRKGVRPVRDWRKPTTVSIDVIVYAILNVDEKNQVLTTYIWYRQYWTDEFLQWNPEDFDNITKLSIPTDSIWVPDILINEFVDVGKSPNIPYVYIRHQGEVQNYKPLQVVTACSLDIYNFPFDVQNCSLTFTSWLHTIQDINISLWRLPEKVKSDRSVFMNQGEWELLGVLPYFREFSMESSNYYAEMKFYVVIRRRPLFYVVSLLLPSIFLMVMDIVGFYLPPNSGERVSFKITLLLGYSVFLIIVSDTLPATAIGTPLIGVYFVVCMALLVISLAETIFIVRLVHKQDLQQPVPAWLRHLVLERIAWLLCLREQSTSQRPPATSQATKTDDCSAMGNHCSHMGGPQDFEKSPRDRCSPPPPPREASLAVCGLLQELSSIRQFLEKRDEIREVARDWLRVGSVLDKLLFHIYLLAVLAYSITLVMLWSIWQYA
As to the kind of experiment: [3H]BRL 43694 competition binding assay (Cerep).

In assay [2] the target is recombinantly expressed human α7-nAChR (Homo sapiens, UniProt P36544). The following applies: [125I] α-BTX radioligand, Feuerbach et al., Br. J. Pharmacol., 2014, read-out: Ki (lit); cited from earlier work.
Sequence of recombinantly expressed human α7-nAChR (P36544 23-502): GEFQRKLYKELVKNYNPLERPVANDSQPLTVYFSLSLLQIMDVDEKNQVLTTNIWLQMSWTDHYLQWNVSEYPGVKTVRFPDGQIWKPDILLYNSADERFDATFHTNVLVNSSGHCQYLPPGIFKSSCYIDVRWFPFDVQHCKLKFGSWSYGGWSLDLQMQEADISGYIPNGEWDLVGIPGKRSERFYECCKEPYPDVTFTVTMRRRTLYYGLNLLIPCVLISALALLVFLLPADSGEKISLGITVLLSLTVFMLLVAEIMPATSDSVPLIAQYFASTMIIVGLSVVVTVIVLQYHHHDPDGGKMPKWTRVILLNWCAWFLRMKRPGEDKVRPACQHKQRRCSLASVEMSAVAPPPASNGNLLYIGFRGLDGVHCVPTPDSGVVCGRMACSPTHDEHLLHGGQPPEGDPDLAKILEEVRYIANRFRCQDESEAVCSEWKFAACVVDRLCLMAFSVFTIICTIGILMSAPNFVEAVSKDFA
For another assay, the target named is human α7 nAChR (Homo sapiens, UniProt P36544). It is filed as binding. The following applies: above described assay provided by Cerep.
Sequence of human α7 nAChR (P36544 23-502): as above
The mark [3] stands for this setting: CHO cell membranes expressing human 5-HT3 receptors, [3H]BRL 43694, 120 min at room temperature, read-out: h-5HT3 Ki.

Turning to `Fc1ccc2c(N[C@@H]3C4CCN(CC4)C34CC4)noc2c1Cl` [Compound (R)-23, (R)-7-chloro-6-fluoro-N-(1′-azaspiro[cyclopropane-1,2′-bicyclo[2.2.2]octan]-3′-yl)benzo[d]isoxazol-3-amine hydrochloride], in assay [1] (setting [3]), the Ki turned out to be 0.11 µM.

For the molecule `COc1c(Cl)ccc2c(N[C@@H]3C4CCN(CC4)C3(C)C)noc12` [Compound (R)-5, (R)-6-chloro-N-(2,2-dimethylquinuclidin-3-yl)-7-methoxybenzo[d]isoxazol-3-amine hydrochloride], the Ki in assay [1] (setting [3]) came to 0.45 µM.

As to `Cc1cc2onc(N[C@@H]3C4CCN(CC4)C3(C)C)c2cc1F` [Compound (R)-9, (R)—N-(2,2-dimethylquinuclidin-3-yl)-5-fluoro-6-methylbenzo[d]isoxazol-3-amine hydrochloride], in assay [1] (setting [3]), the Ki was above 10 µM.

As to `Clc1ccc2c(N[C@@H]3C4CCN(CC4)C34CC4)noc2c1` [Compound (R)-16, (R)-6-chloro-N-(1′-azaspiro[cyclopropane-1,2′-bicyclo[2.2.2]octan]-3′-yl)benzo[d]isoxazol-3-amine], in assay [1] (setting [3]), the Ki worked out at 1.63 µM.

On to `CC1(C)[C@H](Nc2noc3c(Cl)c(F)ccc23)C2CCN1CC2` [Compound (R)-8, (R)-7-chloro-N-(2,2-dimethylquinuclidin-3-yl)-6-fluorobenzo[d]isoxazol-3-amine hydrochloride], for which, in assay [1] (setting [3]), the Ki came to 0.17 µM.

In the case of `CC1(C)C(Nc2noc3cc(Cl)ccc23)C2CCN1CC2` (racemic) [rac-1, 6-chloro-N-(2,2-dimethylquinuclidin-3-yl)benzo[d]isoxazol-3-amine hydrochloride], the Ki in assay [1] (setting [3]) was 2.7 µM.

Consider `Cc1cc2onc(N[C@@H]3C4CCN(CC4)C34CC4)c2cc1F` [Compound (R)-24, (R)-5-fluoro-6-methyl-N-(1′-azaspiro[cyclopropane-1,2′-bicyclo[2.2.2]octan]-3′-yl) benzo[d]isoxazol-3-amine hydrochloride], for which the Ki in assay [1] (setting [3]) worked out at 3.1 µM.

Take `CC1(C)[C@H](Nc2noc3c(F)c(Cl)ccc23)C2CCN1CC2` [Compound (R)-2, (R)-6-chloro-N-(2,2-dimethylquinuclidin-3-yl)-7-fluorobenzo[d]isoxazol-3-amine hydrochloride]: the Ki in assay [1] (setting [3]) came out at 3.15 µM.

Regarding `COc1ccc2c(N[C@@H]3C4CCN(CC4)C34CC4)noc2c1` [Compound (R)-18, (R)-6-methoxy-N-(1′-azaspiro[cyclopropane-1,2′-bicyclo[2.2.2]octan]-3′-yl)benzo[d]isoxazol-3-amine hydrochloride], the Ki in assay [1] (setting [3]) is above 10 µM.

As for `Fc1c(Cl)ccc2c(N[C@@H]3C4CCN(CC4)C34CC4)noc12` [Compound (R)-17, (R)-6-chloro-7-fluoro-N-(1′-azaspiro[cyclopropane-1,2′-bicyclo[2.2.2]octan]-3′-yl)benzo[d]isoxazol-3-amine hydrochloride], the Ki in assay [1] (setting [3]) amounted to 0.92 µM.

Regarding `Cc1ccc2c(N[C@@H]3C4CCN(CC4)C34CC4)noc2c1F` [Compound (R)-22, (R)-7-fluoro-6-methyl-N-(1′-azaspiro[cyclopropane-1,2′-bicyclo[2.2.2]octan]-3′-yl)benzo[d]isoxazol-3-amine hydrochloride], the Ki in assay [1] (setting [3]) was determined as 0.54 µM.

As for `Cc1ccc2c(N[C@@H]3C4CCN(CC4)C34CC4)noc2c1` [Compound (R)-21, (R)-6-methyl-N-(1′-azaspiro[cyclopropane-1,2′-bicyclo[2.2.2]octan]-3′-yl) benzo[d]isoxazol-3-amine hydrochloride], the Ki in assay [1] (setting [3]) was 1.6 µM.

As for `CCOc1c(Cl)ccc2c(N[C@@H]3C4CCN(CC4)C34CC4)noc12` [Compound (R)-27, (R)-6-chloro-7-ethoxy-N-(1′-azaspiro[cyclopropane-1,2′-bicyclo[2.2.2]octan]-3′-yl)benzo[d]isoxazol-3-amine hydrochloride], the Ki in assay [1] (setting [3]) came out at 5.6 µM.

For `Cc1ccc2c(N[C@@H]3C4CCN(CC4)C3(C)C)noc2c1` [Compound (R)-6, (R)—N-(2,2-dimethylquinuclidin-3-yl)-6-methylbenzo[d]isoxazol-3-amine hydrochloride], the Ki in assay [1] (setting [3]) was determined as 3.5 µM.

For `CC1(C)[C@H](Nc2noc3c(C(F)(F)F)c(Cl)ccc23)C2CCN1CC2` [Compound (R)-14, (R)-6-chloro-N-(2,2-dimethylquinuclidin-3-yl)-7-(trifluoromethyl)benzo[d]isoxazol-3-amine hydrochloride], in assay [1] (setting [3]), the Ki is above 10 µM.

The molecule `Cc1ccc2c(N[C@@H]3C4CCN(CC4)C34CC4)noc2c1Cl` [Compound (R)-28, (R)-7-chloro-6-methyl-N-(1′-azaspiro[cyclopropane-1,2′-bicyclo[2.2.2]octan]-3′-yl)benzo[d]isoxazol-3-amine hydrochloride] displayed a Ki in assay [1] of 0.066 µM.

On to `Clc1ccc2c(NC3C4CCN(CC4)C34CC4)noc2c1` (racemic) [rac-16, 6-chloro-N-(1′-azaspiro[cyclopropane-1,2′-bicyclo[2.2.2]octan]-3′-yl)benzo[d]isoxazol-3-amine hydrochloride], for which the Ki in assay [1] is 1.8 µM.

Turning to `CCOc1c(Cl)ccc2c(N[C@@H]3C4CCN(CC4)C3(C)C)noc12` [Compound (R)-12, (R)-6-chloro-N-(2,2-dimethylquinuclidin-3-yl)-7-ethoxybenzo[d]isoxazol-3-amine hydrochloride], in assay [1] (setting [3]), the Ki was above 10 µM.

On to `CC1(C)[C@H](Nc2noc3cc(Cl)ccc23)C2CCN1CC2` [Compound (R)-1, (R)-6-chloro-N-(2,2-dimethylquinuclidin-3-yl)benzo[d]isoxazol-3-amine], for which, in assay [1] (setting [3]), the Ki is 2.6 µM.

As to `Cc1ccc2c(N[C@@H]3C4CCN(CC4)C3(C)C)noc2c1Cl` [Compound (R)-13, (R)-7-chloro-N-(2,2-dimethylquinuclidin-3-yl)-6-methylbenzo[d]isoxazol-3-amine hydrochloride], the Ki in assay [1] (setting [3]) was found to be 0.15 µM.

With `Cc1ccc2c(N[C@@H]3C4CCN(CC4)C3(C)C)noc2c1F` [Compound (R)-7, (R)—N-(2,2-dimethylquinuclidin-3-yl)-7-fluoro-6-methylbenzo[d]isoxazol-3-amine hydrochloride], the Ki in assay [1] (setting [3]) is 2.1 µM.

For the molecule `FC(F)(F)c1c(Cl)ccc2c(N[C@@H]3C4CCN(CC4)C34CC4)noc12` [Compound (R)-29, (R)-6-chloro-N-(1′-azaspiro[cyclopropane-1,2′-bicyclo[2.2.2]octan]-3′-yl)-7-(trifluoromethyl)benzo[d]isoxazol-3-amine hydrochloride], the Ki in assay [1] (setting [3]) was found to be 4.3 µM.

In the case of `Cc1c(Cl)ccc2c(N[C@@H]3C4CCN(CC4)C34CC4)noc12` [Compound (R)-25, (R)-6-chloro-7-methyl-N-(1′-azaspiro[cyclopropane-1,2′-bicyclo[2.2.2]octan]-3′-yl)benzo[d]isoxazol-3-amine hydrochloride], in assay [1] (setting [3]), the Ki was 0.17 µM.

Regarding `Cc1ccc(-c2ccc(OC3CN4CCC3CC4)cn2)cc1` (centres unmarked) [AQW051], the values for the Ki (in assay [2]; on human α7 nAChR) were 0.028 µM and 0.255 µM, respectively.

With `CC1(C)[C@H](Nc2noc3cc(Cl)c(F)cc23)C2CCN1CC2` [Compound (R)-11, (R)-6-chloro-N-(2,2-dimethylquinuclidin-3-yl)-5-fluorobenzo[d]isoxazol-3-amine hydrochloride], in assay [1] (setting [3]), the Ki is above 10 µM.

Take `COc1ccc2c(N[C@@H]3C4CCN(CC4)C3(C)C)noc2c1` [Compound (R)-3, (R)—N-(2,2-dimethylquinuclidin-3-yl)-6-methoxybenzo[d]isoxazol-3-amine hydrochloride]: the Ki in assay [1] (setting [3]) was above 10 µM.

On to `CC1(C)[C@H](Nc2noc3c(Cl)c(Cl)ccc23)C2CCN1CC2` [Compound (R)-4, (R)-6,7-dichloro-N-(2,2-dimethylquinuclidin-3-yl)benzo[d]isoxazol-3-amine hydrochloride], for which the Ki in assay [1] (setting [3]) was found to be 0.13 µM.

Take `Fc1cc2c(N[C@@H]3C4CCN(CC4)C34CC4)noc2cc1Cl` [Compound (R)-26, (R)-6-chloro-5-fluoro-N-(1′-azaspiro[cyclopropane-1,2′-bicyclo[2.2.2]octan]-3′-yl)benzo[d]isoxazol-3-amine hydrochloride]: the Ki in assay [1] (setting [3]) was 2.8 µM.

In the case of `Cc1c(Cl)ccc2c(N[C@@H]3C4CCN(CC4)C3(C)C)noc12` [Compound (R)-10, (R)-6-chloro-N-(2,2-dimethylquinuclidin-3-yl)-7-methylbenzo[d]isoxazol-3-amine hydrochloride], the Ki in assay [1] (setting [3]) amounted to 0.38 µM.

As for `COc1c(Cl)ccc2c(N[C@@H]3C4CCN(CC4)C34CC4)noc12` [Compound (R)-20, (R)-6-chloro-7-methoxy-N-(1′-azaspiro[cyclopropane-1,2′-bicyclo[2.2.2]octan]-3′-yl)benzo[d]isoxazol-3-amine hydrochloride], the Ki in assay [1] (setting [3]) is 0.2 µM.

`Clc1ccc2c(N[C@@H]3C4CCN(CC4)C34CC4)noc2c1Cl` [(R)-19, (R)-6,7-dichloro-N-(1′-azaspiro[cyclopropane-1,2′-bicyclo[2.2.2]octan]-3′-yl)benzo[d]isoxazol-3-amine hydrochloride]: the Ki in assay [1] was determined as 0.1 µM.
